From patent US20070149404A1, “Microbicidal compositions” (BASF AKTIENGESELLSCHAFT, priority 2003, published 2007)

Assays:
Bacteria = test: Intrinsic activity, microtitre plate method, mean score over bacteria; assay type: cell-based, ML, SA, EC, PA, CF, PM; settings: performance against organisms/no of organisms, 0 to <3 poor, >3 inhibition, >4 biostasis, biocidal activity
Method: (§1) The chemistries were tested for their activity against a range of organisms via a microtitre plate method. The test organisms were: • ML—Micrococcus luteus • SA—Staphylococcus aureus • EC—Escherichia coli • PA—Pseudomonas aeruginosa • CF—Citrobacter freundii • PM—Proteus mirabilis • CA—Candida albicans • SC—Saccharomyces cerevisiae • AN—Aspergillus niger • PF—Penicillium funiculosum • AA—Alternaria alternata
(§2) Using the following rating scale: • 0=no activity • 1=minimal inhibition • 2=inhibition • 3=clear inhibition • 4=clear inhibition biostatic, may be biocide activity • 5=biostatic, may be biocide activity
(§3) Readings of 4 and possibly 3 were considered to be valid for biocidal applications.

Saccharomyces cerevisiae = test: Intrinsic activity, microtitre plate method, SC; assay type: cell-based; parameters: key: rating 0 = no activity to 5 = biostatic, may be biocide
Method: as §1, §2, §3

Micrococcus luteus = test: Intrinsic activity, microtitre plate method, ML; assay type: cell-based; parameters: key: rating 0 = no activity to 5 = biostatic, may be biocide
Method: as §1, §2, §3

Escherichia coli = test: Intrinsic activity, microtitre plate method, EC; assay type: cell-based; parameters: key: rating 0 = no activity to 5 = biostatic, may be biocide
Method: as §1, §2, §3

Fungi [1] = test: Intrinsic activity, microtitre plate method, mean score over fungi; assay type: cell-based, CA, SC, AN, PF, AA; settings: performance against organisms/no of organisms, 0 to <3 poor, >3 inhibition, >4 biostasis, biocidal activity
Method: as §1, §2, §3

Penicillium funiculosum = test: Intrinsic activity, microtitre plate method, PF; assay type: cell-based; parameters: key: rating 0 = no activity to 5 = biostatic, may be biocide
Method: as §1, §2, §3

Alternaria alternata = test: Intrinsic activity, microtitre plate method, AA; assay type: cell-based; parameters: key: rating 0 = no activity to 5 = biostatic, may be biocide
Method: as §1, §2, §3

Pseudomonas aeruginosa = test: Intrinsic activity, microtitre plate method, PA; assay type: cell-based; parameters: key: rating 0 = no activity to 5 = biostatic, may be biocide
Method: as §1, §2, §3

Staphylococcus aureus = test: Intrinsic activity, microtitre plate method, SA; assay type: cell-based; parameters: key: 0 = no activity to 5 = biostatic, may be biocide activity
Method: as §1, §2, §3

Proteus mirabilis = test: Intrinsic activity, microtitre plate method, PM; assay type: cell-based; parameters: key: rating 0 = no activity to 5 = biostatic, may be biocide
Method: as §1, §2, §3

Aspergillus niger = test: Intrinsic activity, microtitre plate method, AN; assay type: cell-based; parameters: key: rating 0 = no activity to 5 = biostatic, may be biocide
Method: as §1, §2, §3

[2] = Solubility in water at room temperature
Citrobacter freundii = test: Intrinsic activity, microtitre plate method, CF; assay type: cell-based; parameters: key: rating 0 = no activity to 5 = biostatic, may be biocide
Method: as §1, §2, §3

Candida albicans = test: Intrinsic activity, microtitre plate method, CA; assay type: cell-based; parameters: key: rating 0 = no activity to 5 = biostatic, may be biocide
Method: as §1, §2, §3

fungi [3] = test: Efficacy against fungal growth on painted wooden surface (BS3900 G6); assay type: cell-based; settings: 0.5% in paint
Method: (§4) Testing was performed according to the BS3900 G6 and BBA MOAT 33 methods for evaluation versus fungi and algae, respectively. The methods involve painting a substrate panel with the coating and leaching under running water for 72 hours. The substrates are incubated for 56 days after being inoculated with fungi or algae. Performance is judged by comparing with suitable control samples ie without biocide, a positive control and for fungi with substrate panels that have not been leached.
(§5) Performance rating on painted test substrates (Score of 0, 1 and 2 is considered as a pass) • 0=no growth • 1=trace of growth • 2=growth on 1-10% of test face • 3=growth on 10-30% of test face • 4=growth on 30-70% of test face
(§6) 5=growth on 70-100% of test face.

algae = test: Efficacy against algal growth on painted plaster surface (BBA MOAT 33); assay type: cell-based; settings: 0.5% in paint; for MEAN ALGAL GROWTH RATING 28 days / MEAN ALGAL GROWTH RATING 56 days / % Improved after 56 days (algal growth): painted plaster; for MEAN ALGAL GROWTH RATING 28 days / MEAN ALGAL GROWTH RATING 56 days: leached 72 hours, mean of ratings 0-5; for MEAN ALGAL GROWTH RATING 28 days: 28 days after inoculation; for MEAN ALGAL GROWTH RATING 56 days: 56 days after inoculation; for % Improved after 56 days (algal growth): versus unpreserved paint
Method: as §4, §5, §6

test bacteria and fungi = test: Intrinsic activity against bacteria and fungi, microtitre plate method, summary in words; assay type: cell-based; settings: at both concentrations (1000 and 500 ppm a.i.)
Method: as §1, §2, §3

fungi [4] = test: Efficacy against fungal growth on painted plaster surface (BS3900 G6); assay type: cell-based; settings: 0.5% in paint; for MEAN FUNGAL GROWTH RATING - PLASTER SUBSTRATE 28 days leached / MEAN FUNGAL GROWTH RATING - PLASTER SUBSTRATE 56 days leached: constant running water for 72 hours; for MEAN FUNGAL GROWTH RATING - PLASTER SUBSTRATE 28 days leached / MEAN FUNGAL GROWTH RATING - PLASTER SUBSTRATE 56 days leached / MEAN FUNGAL GROWTH RATING - PLASTER SUBSTRATE 28 days as applied / MEAN FUNGAL GROWTH RATING - PLASTER SUBSTRATE 56 days as applied: mean of ratings 0-5; for % Improved After 56 days leached (fungal, plaster): leached 72 hours; for % Improved After 56 days leached (fungal, plaster) / % Improved After 56 days as applied (fungal, plaster): versus unpreserved paint; for MEAN FUNGAL GROWTH RATING - PLASTER SUBSTRATE 28 days as applied / MEAN FUNGAL GROWTH RATING - PLASTER SUBSTRATE 56 days as applied: no leaching with water; for % Improved After 56 days as applied (fungal, plaster): no leaching
Method: as §4, with “The substrates are incubated for 56 days after being inoculated with fungi or algae.” left out
as §5, §6

Compound | Bacteria Mean Score (Bacteria; 500 ppm a.i.) | Bacteria Mean Score (Bacteria; 1000 ppm a.i.) | SC rating (Saccharomyces cerevisiae; 500 ppm a.i.) | SC rating (Saccharomyces cerevisiae; 1000 ppm a.i.) | ML rating (Micrococcus luteus; 500 ppm a.i.) | ML rating (Micrococcus luteus; 1000 ppm a.i.) | EC rating (Escherichia coli; 500 ppm a.i.) | EC rating (Escherichia coli; 1000 ppm a.i.) | Fungi Mean Score (Fungi [1]; 500 ppm a.i.) | Fungi Mean Score (Fungi [1]; 1000 ppm a.i.) | PF rating (Penicillium funiculosum; 500 ppm a.i.) | PF rating (Penicillium funiculosum; 1000 ppm a.i.) | AA rating (Alternaria alternata; 500 ppm a.i.) | AA rating (Alternaria alternata; 1000 ppm a.i.) | PA rating (Pseudomonas aeruginosa; 500 ppm a.i.) | PA rating (Pseudomonas aeruginosa; 1000 ppm a.i.) | SA rating (Staphylococcus aureus; 500 ppm a.i.) | SA rating (Staphylococcus aureus; 1000 ppm a.i.) | PM rating (Proteus mirabilis; 500 ppm a.i.) | Aq. Solubility (ppm) [2] [ppm] | also measured
O=C(O)COc1ccc(Cl)cc1Cl [2,4-D, 2,4-Dichlorphenoxy acetic acid] | 1.0 | 3.5 | 1 | 3 | 2 | 5 | 0 | 3 | 2.8 | 4.6 | 3 | 5 | 5 | 5 | 0 | 3 | 3 | 3 | 1 | 600 | PM rating (Proteus mirabilis; 1000 ppm a.i.): 2; AN rating (Aspergillus niger; 500 ppm a.i.): 0; AN rating (Aspergillus niger; 1000 ppm a.i.): 5; CF rating (Citrobacter freundii; 500 ppm a.i.): 0; CF rating (Citrobacter freundii; 1000 ppm a.i.): 5; CA rating (Candida albicans; 500 ppm a.i.): 5; CA rating (Candida albicans; 1000 ppm a.i.): 5
CC(Cc1ccc(C(C)(C)C)cc1)CN1C[C@@H](C)O[C@@H](C)C1 (stereo partly drawn) [Fenpropimorph, 4-[2-Methyl-3-(p-tert.butyl-phenyl)-propyl]-2,6-cis-dimethylmorpholin] | 0.0 | 0.3 | 5 | 5 | 0 | 2 | 0 | 0 | 5.0 | 5.0 | 5 | 5 | 5 | 5 | 0 | 0 | 0 | 0 | 0 | – | Improvement against fungal growth on the wood surface (fungi [3]): only showed marginal improvement; MEAN ALGAL GROWTH RATING 28 days (algae): 2 (2=growth on 1-10% of test face); MEAN ALGAL GROWTH RATING 56 days (algae): 3 (3=growth on 10-30% of test face); % Improved after 56 days (algal growth) (algae): 25.0%; Improvement against algal growth on the plaster surface (algae): exhibited an improvement; PM rating (Proteus mirabilis; 1000 ppm a.i.): 0; Spectrum of activity (test bacteria and fungi): only display antifungal activity; AN rating (Aspergillus niger; 500 ppm a.i.): 5; AN rating (Aspergillus niger; 1000 ppm a.i.): 5; Improvement against fungal growth on the plaster surface (fungi [4]; as applied or after leaching): exhibited an improvement; MEAN FUNGAL GROWTH RATING - PLASTER SUBSTRATE 28 days leached (fungi [4]): 3 (3=growth on 10-30% of test face); MEAN FUNGAL GROWTH RATING - PLASTER SUBSTRATE 56 days leached (fungi [4]): 3 (3=growth on 10-30% of test face); % Improved After 56 days leached (fungal, plaster) (fungi [4]): 14%; MEAN FUNGAL GROWTH RATING - PLASTER SUBSTRATE 28 days as applied (fungi [4]): 4 (4=growth on 30-70% of test face); MEAN FUNGAL GROWTH RATING - PLASTER SUBSTRATE 56 days as applied (fungi [4]): 4 (4=growth on 30-70% of test face); % Improved After 56 days as applied (fungal, plaster) (fungi [4]): 20%; CF rating (Citrobacter freundii; 500 ppm a.i.): 0; CF rating (Citrobacter freundii; 1000 ppm a.i.): 0; CA rating (Candida albicans; 500 ppm a.i.): 5; CA rating (Candida albicans; 1000 ppm a.i.): 5
O=C(Nc1ccc(F)cc1)c1cccc(Oc2cccc(C(F)(F)F)c2)n1 [Picolinafen] | – | – | – | – | – | – | – | – | – | – | – | – | – | – | – | – | – | – | – | 0.004 | Improvement against fungal growth on the wood surface (fungi [3]): only showed marginal improvement; MEAN ALGAL GROWTH RATING 28 days (algae): 1.5; MEAN ALGAL GROWTH RATING 56 days (algae): 2.5; % Improved after 56 days (algal growth) (algae): 37.5%; Improvement against algal growth on the plaster surface (algae): exhibited an improvement; MEAN FUNGAL GROWTH RATING - PLASTER SUBSTRATE 28 days leached (fungi [4]): 3 (3=growth on 10-30% of test face); MEAN FUNGAL GROWTH RATING - PLASTER SUBSTRATE 56 days leached (fungi [4]): 3.5; % Improved After 56 days leached (fungal, plaster) (fungi [4]): 0%; MEAN FUNGAL GROWTH RATING - PLASTER SUBSTRATE 28 days as applied (fungi [4]): 4.5; MEAN FUNGAL GROWTH RATING - PLASTER SUBSTRATE 56 days as applied (fungi [4]): 5 (5=growth on 70-100% of test face); % Improved After 56 days as applied (fungal, plaster) (fungi [4]): 0%
Metiram | – | – | – | – | – | – | – | – | – | – | – | – | – | – | – | – | – | – | – | 2.7 | –
